Laboratory results reported in patent US20040029823A1, “Antisense oligonucleotide compositions and methods for the modulation of JNK proteins” (priority 1997, published 2004).

What was measured:
[1] = tested on: TNFa-induced JNK activity; experiment: TNFa-induced JNK activity in HUVEC (GST-c-Jun phosphorylation); type: cell-based, human; conditions: 100 nM oligonucleotide, compared to a control oligonucleotide
MDA-MB-231 tumors = experiment: MDA-MB-231 human breast adenocarcinoma tumors in nude mice; type: in vivo; conditions: 25 mg/kg intravenous once daily
Source text: Approximately 5×10^6 breast adenocarcinoma cells (cell line MDA-MB-231; American Type Culture Collection, Richmond, Va., No. ATCC HTB-26) were implanted subcutaneously in the right inner thigh of nude mice (n=6 for each of three sets of mice). Oligonucleotides ISIS 15346 (JNK1, SEQ ID NO: 16) and 15353 (JNK2, SEQ ID NO: 31) were suspended in saline and administered once daily to two sets of mice on the first day the tumor volume was about […]. A saline-only (0.9% NaCl) solution was given to a third set of animals as a control. Oligonucleotides were given by intravenous injection at a dosage of 25 mg/kg. Tumor size was measured and tumor volume was calculated on days 12, 19, 26 and 33 following tumor cell inoculation.

HUVEC = experiment: Apoptosis in HUVEC (percent hypodiploid cells, flow cytometry); type: cell-based, human; conditions: HUVEC

G^ST^SC^SC^SG^SG^SG^SC^SC^SA^SG^SG^SC^SC^SA^SA^SA^SG^ST^SC (antisense GTCCGGGCCAGGCCAAAGTC; DNA, all phosphorothioate, methylation of C not given here) [ISIS 15353, JNK2 gapmer: P═S, 2′-MOE wings; P═S, 2-deoxy core]
inhibition of TNFa-induced JNK activity [1]: ~55%
Mean Tumor Volume (MDA-MB-231 tumors; Day 12 after tumor cell inoculation): 0.122 cm^3
Mean Tumor Volume (MDA-MB-231 tumors; Day 19): 0.230 cm^3
Mean Tumor Volume (MDA-MB-231 tumors; Day 26): 0.358 cm^3
Mean Tumor Volume (MDA-MB-231 tumors; Day 33): 0.762 cm^3
percent hypodiploid cells (a measure of apoptosis) (HUVEC; Oligo + Cyclohexamide): 27%
percent hypodiploid cells (a measure of apoptosis) (HUVEC; Oligo + TNFa (10 ng/ml)): 32%
percent hypodiploid cells (a measure of apoptosis) (HUVEC; Oligo + z-VAD.fmk): 17%
percent hypodiploid cells (a measure of apoptosis) (HUVEC; Oligo alone): 23%
